Series [1] concerns raffinose synthase. Description: raffinose synthase activity with enzyme inhibitors or metal ions added. Type of series: biochemical, cucumber. The conditions noted are these: final concentration of 1 mM; for Remaining activity (%): with respect to activity when neither inhibitor nor metal ion was added. As for the experimental part:
(§1) The activity of the raffinose synthase was measured by quantitatively determining raffinose produced by the raffinose synthesis reaction by using HPLC (high-performance liquid chromatography). HPLC was performed by using Sugar Analysis System DX500 (CarboPac PA1column, pulsed amperometry detector (produced by DIONEX)).
(§2) For the raffinose synthesis reaction, to a reaction solution prepared to have a composition having the following final concentrations, 10 to 50 μl of a raffinose synthase solution was added to give a volume of 100 μl followed by performing the reaction at 32° C. for 60 minutes.
(§3) After performing the reaction as described above, the reaction was stopped by adding to the reaction solution, ethanol in a volume four times the volume of the reaction solution and heating the solution at 95° C. for 30 seconds. The obtained solution was centrifuged to obtain a supernatant and the supernatant was then dried up under a reduced pressure. After that, an obtained residue was dissolved in distilled water. Raffinose in the reaction product was quantitatively determined by using the sugar analysis system to estimate the raffinose synthase activity.
Various enzyme inhibitors or metal ions were added to the reaction solution of the purified raffinose synthase to give a final concentration of 1 mM respectively, and the raffinose synthase activity was measured in the same manner as described above.

Series [2] concerns raffinose synthase. Description: inhibition of raffinose synthase activity by myo-inositol. Type of series: biochemical, cucumber. The conditions noted are these: myo-inositol added at various concentrations (FIG. 5). As to the method:
as §1, §2, §3
Investigation was made for inhibition by myo-inositol as the reaction product of the raffinose synthesis reaction. To the reaction solution, myo-inositol was added at various concentrations, and the raffinose synthase activity was measured. […]

A short description of series [3]: raffinose synthase activity of purification fractions (HPLC determination of raffinose). The series is classed as biochemical, cucumber. Conditions: purified active fraction after hydroxyapatite rechromatography. As to the method: as §1, §2, §3
The amount of protein contained in the active fraction was about 200 μg. The total activity was 5700 nmol/hour, and the specific activity per protein was about 28 μmol/hour/mg. […]

The nature of series [4]: optimum reaction temperature of raffinose synthase. The series is classed as biochemical, cucumber. Conditions: measured at 28 to 52° C. As to the method: as §1, §2, §3
The raffinose synthase activity was measured under various temperature conditions (28° C., 32° C., 36° C., 40° C., 44° C., 48° C., and 52° C.) in accordance with the method for measuring the raffinose synthase activity described above. […]

Series [5] is described as follows: optimum reaction pH of raffinose synthase. The series is classed as biochemical, cucumber. Conditions: pH 4 to 11, various buffers. As for the experimental part:
as §1, §2, §3
The raffinose synthase activity was measured under various pH conditions (pH 4 to 11) in accordance with the method for measuring the raffinose synthase activity described above. […]

Series [6] is described as follows: stable pH of raffinose synthase. Type of series: physicochemical, cucumber. The conditions noted are these: fraction from anion exchange chromatography (2); incubated 4 hours at 4° C. As for the experimental part:
The raffinose synthase fraction obtained by the anion exchange chromatography (2) described above was incubated for 4 hours at 4° C. in 50 mM Bis-Tris-HCl buffer (pH 5 to 8.0, containing 0.5 mM DTT) or 20 mM Tris-HCl buffer (pH 7 to 8.0, containing 0.5 mM DTT), and then the raffinose synthase activity was measured. […] The raffinose synthase activity was confirmed after the incubation under any of the incubation conditions. Especially, the enzyme was stable in a range of pH 5 to 7.5.

The nature of series [7]: stable temperature of raffinose synthase. Type of series: physicochemical, cucumber. Conditions: fraction from anion exchange chromatography (2); 60 minutes at 28° C. to 40° C., pH 7. As to the method: The raffinose synthase fraction obtained by the anion exchange chromatography (2) described above was incubated in 20 mM Tris-HCl buffer (pH 7, containing 0.5 mM DTT) for 60 minutes at 28° C., 32° C., 37° C., or 40° C., and then the raffinose synthase activity was measured.

Consider `[Cl][Mn][Cl]` [MnCl2], for which, in series [1], the “inhibiting effect on the enzyme activity” value is “exhibited the inhibiting effect” and the “Remaining activity (%)” value is listed as 32%.
For `NC(=O)CI` [Iodoacetoamide, Iodoacetamide], in series [1], the “inhibiting effect on the enzyme activity” value is reported as “remarkably inhibited” and the “Remaining activity (%)” value turned out to be 0%.
In the case of `[Cl][Ni][Cl]` [NiCl2], in series [1], the “inhibiting effect on the enzyme activity” value is reported as “exhibited the inhibiting effect” and the “Remaining activity (%)” value is 68%.
As to `[Cl-].[Cl-].[Zn+2]` [ZnCl2], in series [1], the “inhibiting effect on the enzyme activity” value is on record as “exhibited the inhibiting effect” and the “Remaining activity (%)” value was determined as 42%.
For the molecule `[Cl][Cu][Cl]` [CuCl2], in series [1], the “inhibiting effect on the enzyme activity” value is on record as “scarcely observed” and the “Remaining activity (%)” value came to 101%.
Take `[Cl-].[Cl-].[Mg+2]` [MgCl2]: in series [1], the “inhibiting effect on the enzyme activity” value is “scarcely observed” and the “Remaining activity (%)” value is given as 96%.
Consider `O[C@H]1[C@H](O)[C@@H](O)[C@H](O)[C@@H](O)[C@H]1O` [myo-inositol], for which the “inhibition of the enzyme activity by myo-inositol” value in series [2] is given as “inhibited”.
Take `CCN1C(=O)C=CC1=O` [N-ethylmaleimide]: in series [1], the “inhibiting effect on the enzyme activity” value was “remarkably inhibited” and the “Remaining activity (%)” value came out at 40%.
In the case of `[Ca+2].[Cl-].[Cl-]` [CaCl2], in series [1], the “inhibiting effect on the enzyme activity” value is reported as “scarcely observed” and the “Remaining activity (%)” value stood at 115%.

B1: raffinose synthase: raffinose synthase purified from cucumber leaf vein tissues, amino acid sequence SEQ ID NO: 5 (protein, listed as Cucumis sativus)
chain: MAPSFKNGGSNVVSFDGLNDMSSPFAIDGSDFTVNGHSFLSDVPENIVASPSPYTSIDKSPVSVGCFVGFDASEPDSRHVVSIGKLKDIRFMSIFRFKVWWTTHWVGRNGGDLESETQIVILEKSDSGRPYVFLLPIVEGPFRTSIQPGDDDFVDVCVESGSSKVVDASFRSMLYLHAGDDPFALVKEAMKIVRTHLGTFRLLEEKTPPGIVDKFGWCTWDAFYLTVHPQGVIEGVRHLVDGGCPPGLVLIDDGWQSIGHDSDPITKEGMNQTVAGEQMPCRLLKFQENYKFRDYVNPKATGPRAGQKGMKAFIDELKGEFKTVEHVYVWHALCGYWGGLRPQVPGLPEARVIQPVLSPGLQMTMEDLAVDKIVLHKVGLVPPEKAEEMYEGLHAHLEKVGIDGVKIDVIHLLEMLCEDYGGRVDLAKAYYKAMTKSINKHFKGNGVIASMEHCNDFMFLGTEAISLGRVGDDFWCTDPSGDPNGTFWLQGCHMVHCANDSLWMGNFIHPDWDMFQSTHPCAAFHAASRAISGGPIYVSDSVGKHNFDLLKKLVLPDGSILRSEYYALPTRDCLFEDPLHNGETMLKIWNLNKFTGVIGAFNCQGGGWCRETRRNQCFSQYSKRVTSKTNPKDIEWHSGENPISIEGVKTFALYLYQAKKLILSKPSQDLDIALDPFEFELITVSPVTKLIQTSLHFAPIGLVNMLNTSGAIQSVDYDDDLSSVEIGVKGCGEMRVFASKKPRACRIDGEDVGFKYDQDQMVVVQVPWPIDSSSGGISVIEYLF
Turning to B1, the “specific activity per protein” value in series [3] is listed as “about 28 μmol/hour/mg”. Moreover, in series [4], the optimum reaction temperature lay in the range of 35 to 40 °C and the “temperature range in which activity was exhibited” value fell in the range of 25 to 42 °C. Moreover, in series [5], the “optimum reaction pH” value lay within 6 to 8 pH and the “pH range in which activity was exhibited” value lay within 5 to 10 pH. Further, the “stable pH range” value in series [6] was 5 to 7.5 pH. For the same molecule, in series [7], the “activity after incubation relative to non-incubated control” value is 80% to 100.
